Among the data in patent US20250288571A1 (Nested Therapeutics, Inc., priority 2024, published 2025) are viability and IC50 values, retold here.

The subject of one assay is IPC298 cells. As to the kind of experiment: IPC298 Cell Titer Glow assay (CTG). As to conditions: Homo sapiens, IPC-298, 72 h; for IC50: read-out: CTG IC50 (nM) Cell Line: IPC298.2. (In general: In ATP-based viability assays light output follows the ATP content of the culture.)
A further assay relates to HCT116 cells. As to the kind of experiment: HCT116 Cell Titer Glow assay (CTG). As to conditions: Homo sapiens, HCT-116, 72 h; for IC50: read-out: CTG IC50 (nM) Cell Line: HCT116.20.
Setting [1] is: read-out: CTG % cell viability 100 uM IPC298.2, IPC298 cells, 72 hours, 100 uM, percent cells remaining after treatment.
[2] abbreviates: read-out: CTG % cell viability 1000 uM HCT116.20, HCT116 cells, 72 hours, 1000 uM, percent cells remaining after treatment.

Each structure is given as a SMILES string. Read-outs that look alike come from different tables or passages of the source.

Method for IPC298 cells: HCT116 and IPC298 Cell Titer Glow Assay (CTG)
HCT116 cells and IPC298 cells were diluted with culture medium to the desired density 500 cells/well and 40 μL of cell suspension were added into each well of 384-well cell culture plate. […] The plates were covered and stored at room temperature for 30 minutes without shaking and then the plates were transferred into a 37° C. 5% CO2 incubator overnight.
A 10 mM solution in dimethyl sulfoxide (DMSO) was prepared for each test compound. A 3 fold, 10-point dilution was prepared from the stock solution. 40 nl of each solution in 100% DMSO was added to the 384-well plate and diluted to a final 0.1% DMSO final concentration. The plates were then incubated for 72 hours (for both cell lines) at 37° C.
CellTiter-Glo® 2.0 Reagent (Promega, G9242) was removed from the refrigerator and equilibrated at room temperature (23° C.) for 60 minutes. The plates were then removed from the incubator and allowed to equilibrate to room temperature. 30 μL CellTiter-Glo® 2.0 Reagent were added to the assay plates, and spun 1 min/1000 rpm. The plates were allowed to stand for about 20 minutes before being read on Envision using a standard luminescence readout. DMSO was employed as negative control (High control, HC) and 1 uM Staurosporine was employed as positive control (Low control, LC).
The percent (%) inhibition at each concentration of compound was calculated based on the signal in the negative and positive control wells contained within each assay plate.

Consider `CNS(=O)(=O)Nc1nccc(Cc2cncc(O[C@H]3CC[C@H](C)CC3)c2C)c1F` [Example 63, 3-fluoro-4-[[4-methyl-5-(4-methylcyclohexoxy)-3-pyridyl]methyl]-N-(methylsulfamoyl)pyridin-2-amine], for which, in the assay on IPC298 cells (setting [1]), the viability at 100 µM came to 62.4%. The IC50 in the assay with IPC298 cells and in the assay with HCT116 cells was above 1000 nM throughout. For the same compound, the viability at 1000 µM with HCT116 cells (setting [2]) is 71.5%.
For the compound `CNS(=O)(=O)Nc1nccc(Cc2cncc(Oc3ccc(C(F)F)cc3F)c2C)c1F` [Example 65, 4-[[5-[4-(difluoromethyl)-2-fluoro-phenoxy]-4-methyl-3-pyridyl]methyl]-3-fluoro-N-(methylsulfamoyl)pyridin-2-amine], the results for the IC50 in the assay on IPC298 cells and in the assay on HCT116 cells were below 10 nM and 10 to 100 nM, respectively.
Taken in the same sequence, the figures for `CNS(=O)(=O)Nc1nccc(Cc2cncc(Nc3ccc(OC(F)F)cn3)c2C)c1F` [Example 66, 4-[[5-[[5-(difluoromethoxy)-2-pyridyl]amino]-4-methyl-3-pyridyl]methyl]-3-fluoro-N-(methylsulfamoyl)pyridin-2-amine] were below 10 nM and 10 to 100 nM.
Taken in the same sequence, the figures for `CNS(=O)(=O)Nc1nccc(Cc2cncc(Nc3ccc(Cl)cc3F)c2Cl)c1F` [Example 67, 4-chloro-N-(4-chloro-2-fluorophenyl)-5-({3-fluoro-2-[(methylsulfamoyl)amino]pyridin-4-yl}methyl)pyridin-3-amine] were below 10 nM and 10 to 100 nM.
Taken in the same sequence, the figures for `C=CCNc1cncc(Cc2ccnc(NS(=O)(=O)NC)c2F)c1C` [Example 68, 4-[[5-(allylamino)-4-methyl-3-pyridyl]methyl]-3-fluoro-N-(methylsulfamoyl)pyridin-2-amine] were above 1000 nM and 500 to 1000 nM.
Consider `CNS(=O)(=O)Nc1nccc(Cc2cncc(Nc3ccc(OC(F)(F)F)cn3)c2C)c1F` [Example 69, 3-fluoro-N-(methylsulfamoyl)-4-[[4-methyl-5-[[5-(trifluoromethoxy)-2-pyridyl]amino]-3-pyridyl]methyl]pyridin-2-amine], for which the results for the IC50 in the assay with IPC298 cells and with HCT116 cells were 10 to 100 nM and above 1000 nM, respectively. For the same compound, the viability at 1000 µM in the assay with HCT116 cells (setting [2]) stood at 60.4%.
In the case of `CNS(=O)(=O)Nc1nccc(Cc2cccc(Nc3ccc(Cl)cc3F)c2C)c1F` [Example 70, 4-[[3-(4-chloro-2-fluoro-anilino)-2-methyl-phenyl]methyl]-3-fluoro-N-(methylsulfamoyl)pyridin-2-amine], the IC50 in the assay with IPC298 cells was 10 to 100 nM; in the assay on HCT116 cells it was above 1000 nM. The viability at 1000 µM with HCT116 cells (setting [2]) amounted to 50.2%.
As for `CNS(=O)(=O)Nc1nccc(Cc2cncc(Oc3ccc(SC)cc3)c2C)c1F` [Example 71, {[3-fluoro-4-({4-methyl-5-[4-(methylsulfanyl)phenoxy]pyridin-3-yl}methyl)pyridin-2-yl]sulfamoyl}(methyl)amine], the 50% inhibitory concentration (IC50) in the assay with IPC298 cells and in the assay with HCT116 cells was below 10 nM each time.
In the case of `CNS(=O)(=O)Nc1nccc(Cc2cncc(Oc3ccc(S(C)(=O)=O)cc3)c2C)c1F` [Example 72, [(3-fluoro-4-{[5-(4-methanesulfonylphenoxy)-4-methylpyridin-3-yl]methyl}pyridin-2-yl)sulfamoyl](methyl)amine], the results for the IC50 with IPC298 cells and with HCT116 cells were 10 to 100 nM and 500 to 1000 nM, respectively.
For `CNS(=O)(=O)Nc1nccc(Cc2cncc(OC3CCC(C)(C)CC3)c2C)c1F` [Example 73, 4-[[5-(4,4-dimethylcyclohexoxy)-4-methyl-3-pyridyl]methyl]-3-fluoro-N-(methylsulfamoyl)pyridin-2-amine], the viability at 100 µM with IPC298 cells (setting [1]) came to 80.8%. The IC50 in the assay with IPC298 cells and in the assay on HCT116 cells was above 1000 nM in each case. The viability at 1000 µM in the assay on HCT116 cells (setting [2]) was 75.4%.
Turning to `CC#CCOc1cncc(Cc2ccnc(NS(=O)(=O)NC)c2F)c1C` [Example 75, 4-[(5-but-2-ynoxy-4-methyl-3-pyridyl)methyl]-3-fluoro-N-(methylsulfamoyl)pyridin-2-amine], the viability at 100 µM in the assay on IPC298 cells (setting [1]) stood at 87.5%. The IC50 with IPC298 cells and in the assay with HCT116 cells was above 1000 nM each time. The viability at 1000 µM in the assay on HCT116 cells (setting [2]) amounted to 89.1%.
As for `CNS(=O)(=O)Nc1nccc(Cc2cncc(Oc3ccc(Cl)cc3C)c2C)c1F` [Example 76, 4-[[5-(4-chloro-2-methyl-phenoxy)-4-methyl-3-pyridyl]methyl]-3-fluoro-N-(methylsulfamoyl)pyridin-2-amine], the IC50 in the assay on IPC298 cells is below 10 nM; in the assay on HCT116 cells, 100 to 500 nM.
Taken in the same sequence, the figures for `CNS(=O)(=O)Nc1nccc(Oc2cncc(Oc3ccc(Cl)cc3)c2C)c1F` [Example 77, 4-[[5-(4-chlorophenoxy)-4-methyl-3-pyridyl]oxy]-3-fluoro-N-(methylsulfamoyl)pyridin-2-amine] were below 10 nM and 100 to 500 nM.
Taken in the same sequence, the figures for `CNS(=O)(=O)Nc1nccc(Cc2cncc(Sc3ccc(Cl)cc3)c2C)c1F` [Example 78, {[4-({5-[(4-chlorophenyl)sulfanyl]-4-methylpyridin-3-yl}methyl)-3-fluoropyridin-2-yl]sulfamoyl}(methyl)amine] were below 10 nM and 100 to 500 nM.
Taken in the same sequence, the figures for `CNS(=O)(=O)Nc1nccc(Oc2cncc(Nc3ccc(C)cc3F)c2C)c1F` [Example 79] were below 10 nM and below 10 nM.
As to `CCc1ccc(Nc2cncc(Oc3ccnc(NS(=O)(=O)NC)c3F)c2C)c(F)c1` [Example 80, N-(4-ethyl-2-fluorophenyl)-5-({3-fluoro-2-[(methylsulfamoyl)amino]pyridin-4-yl}oxy)-4-methylpyridin-3-amine], the IC50 with IPC298 cells and with HCT116 cells was below 10 nM throughout.
In the case of `CCNS(=O)(=O)Nc1nccc(Cc2cncc(Oc3ccc(Cl)cc3F)c2C)c1F` [Example 81, 4-[[5-(4-chloro-2-fluoro-phenoxy)-4-methyl-3-pyridyl]methyl]-N-(ethylsulfamoyl)-3-fluoro-pyridin-2-amine], the half-inhibitory concentration (IC50) in the assay with IPC298 cells was below 10 nM; in the assay on HCT116 cells it was 100 to 500 nM.
As to `CNS(=O)(=O)Nc1nccc(Cc2cncc(OCc3ccc(Cl)cc3)c2C)c1F` [Example 82, 4-[[5-[(4-chlorophenyl)methoxy]-4-methyl-3-pyridyl]methyl]-3-fluoro-N-(methylsulfamoyl)pyridin-2-amine], the viability at 100 µM in the assay on IPC298 cells (setting [1]) was found to be 56%. Also, the IC50 with IPC298 cells and with HCT116 cells was above 1000 nM each time. Besides, the viability at 1000 µM with HCT116 cells (setting [2]) stood at 93%.
Regarding `CCc1c(Cc2ccnc(NS(=O)(=O)NC)c2F)cncc1Oc1ccc(Cl)cc1` [Example 83, 4-[[5-(4-chlorophenoxy)-4-ethyl-3-pyridyl]methyl]-3-fluoro-N-(methylsulfamoyl)pyridin-2-amine], the IC50 in the assay with IPC298 cells was below 10 nM; in the assay with HCT116 cells, 10 to 100 nM.
Taken in the same sequence, the figures for `CNS(=O)(=O)Nc1nccc(Oc2cncc(Oc3ccc(C)cc3Cl)c2C)c1F` [Example 84, 4-[[5-(2-chloro-4-methyl-phenoxy)-4-methyl-3-pyridyl]oxy]-3-fluoro-N-(methylsulfamoyl)pyridin-2-amine] were below 10 nM and 500 to 1000 nM.
As to `CNS(=O)(=O)Nc1nccc(Cc2cncc(NC3CC4(C3)CN(C)C4)c2C)c1F` [Example 85, N-[5-[[3-fluoro-2-(methylsulfamoylamino)-4-pyridyl]methyl]-4-methyl-3-pyridyl]-2-methyl-2-azaspiro[3.3]heptan-6-amine], the viability at 100 µM in the assay on IPC298 cells (read-out: CTG % cell viability 100 uM IPC298.2) came to 106%. Further, the IC50 in the assay on IPC298 cells and in the assay with HCT116 cells was above 1000 nM throughout. Moreover, the viability at 1000 µM in the assay on HCT116 cells (read-out: CTG % cell viability 1000 uM HCT116.20) is 102%.
`CNS(=O)(=O)Nc1nccc(Cc2cncc(OCc3cccc(Cl)c3)c2C)c1F` [Example 86, 4-[[5-[(3-chlorophenyl)methoxy]-4-methyl-3-pyridyl]methyl]-3-fluoro-N-(methylsulfamoyl)pyridin-2-amine]: the IC50 in the assay on IPC298 cells was in the range of 10 to 100 nM; with HCT116 cells, 100 to 500 nM.
With `CNS(=O)(=O)Nc1nccc(Cc2cccc3c2CCCN3c2ccc(Cl)cc2F)c1F` [Example 87, 4-[[1-(4-chloro-2-fluoro-phenyl)-3,4-dihydro-2H-quinolin-5-yl]methyl]-3-fluoro-N-(methylsulfamoyl)pyridin-2-amine], the viability at 100 µM in the assay with IPC298 cells (setting [1]) stood at 101%. Besides, the IC50 in the assay with IPC298 cells and in the assay with HCT116 cells was above 1000 nM throughout. In the assay on HCT116 cells (setting [2]), the viability at 1000 µM was found to be 95%.
Take `CNS(=O)(=O)Nc1nccc(Cc2cncc(Nc3ccc(CC(C)C)cc3F)c2C)c1F` [Example 88, 3-fluoro-4-[[5-(2-fluoro-4-isobutyl-anilino)-4-methyl-3-pyridyl]methyl]-N-(methylsulfamoyl)pyridin-2-amine]: the IC50 was below 10 nM in the assay with IPC298 cells and 100 to 500 nM in the assay on HCT116 cells.
In the case of `CNS(=O)(=O)Nc1nccc(Cc2cncc(Oc3ncc(C)s3)c2C)c1F` [Example 89, 3-fluoro-4-[[4-methyl-5-(5-methylthiazol-2-yl)oxy-3-pyridyl]methyl]-N-(methylsulfamoyl)pyridin-2-amine], the viability at 100 µM in the assay on IPC298 cells (setting [1]) turned out to be 100%. In addition, the half-maximal inhibitory concentration (IC50) with IPC298 cells and in the assay on HCT116 cells was above 1000 nM throughout. Further, the viability at 1000 µM in the assay on HCT116 cells (setting [2]) came out at 95%.
As for `Cc1c(Cc2ccnc(NS(=O)(=O)NC(C)C)c2F)cncc1Oc1ccc(Cl)cc1F` [Example 90, 4-[[5-(4-chloro-2-fluoro-phenoxy)-4-methyl-3-pyridyl]methyl]-3-fluoro-N-(isopropylsulfamoyl)pyridin-2-amine], the IC50 in the assay with IPC298 cells is 10 to 100 nM; in the assay on HCT116 cells, above 1000 nM. For the same compound, in the assay on HCT116 cells (setting [2]), the viability at 1000 µM came out at 59.5%.
As for `CNS(=O)(=O)Nc1nccc(Cc2cncc(Oc3ccc(C)cc3F)c2C)c1OC` [Example 91, 4-[[5-(2-fluoro-4-methyl-phenoxy)-4-methyl-3-pyridyl]methyl]-3-methoxy-N-(methylsulfamoyl)pyridin-2-amine], the IC50 was below 10 nM with IPC298 cells and 10 to 100 nM in the assay with HCT116 cells.

By viability is commonly meant a read-out of living cells in per cent, often relative to untreated cells. In general, IC50 refers to the point on the concentration scale where inhibition reaches its midpoint.
